Laboratory results: the supplement of paper PMC10307832

Tests used:
Assay in all cases: relative viability (nuclei count vs DMSO), 5 days (fraction); higher = more cells survive
[1] = compound: CCn1c(-c2nonc2N)nc2cnc(Oc3cccc(NC(=O)c4ccc(OCCN5CCOCC5)cc4)c3)cc21 + O=C(c1cc(Cc2n[nH]c(=O)c3ccccc23)ccc1F)N1CCN(C(=O)C2CC2)CC1 [Olaparib] (partner 8 µM)
Outline: (§1)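 Relative viability equals treated-well nuclei counts divided by vehicle-well nuclei counts. Counts came from 4× images of lung cancer cell lines grown in 1536-well plates for 5 days after pin-tool dosing on the day after seeding. Dosing used one drug alone or a fixed anchor-drug dose plus five library-drug doses (not always all listed) in √10 steps, and values are medians of duplicate plates.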

[2] = compound: CCn1c(-c2nonc2N)nc2cnc(Oc3cccc(NC(=O)c4ccc(OCCN5CCOCC5)cc4)c3)cc21 + Nc1nc2[nH]cc(CCc3ccc(C(=O)N[C@@H](CCC(=O)O)C(=O)O)cc3)c2c(=O)[nH]1 [Pemetrexed] (partner 0.2 µM)
Outline: as §1

[3] = compound: CCC1=CN=CN=C1N2CCN(CC2)CC3=NC4=C(N3)C=C(C=C4)C(F)(F)F + O=C(c1cc(Cc2n[nH]c(=O)c3ccccc23)ccc1F)N1CCN(C(=O)C2CC2)CC1 [Olaparib] (partner 8 µM)
Outline: as §1

[4] = compound: CCn1c(-c2nonc2N)nc2cnc(Oc3cccc(NC(=O)c4ccc(OCCN5CCOCC5)cc4)c3)cc21 + N=C(N)NC(=N)NCCc1ccccc1 [Phenformin] (partner 250 µM)
Outline: as §1

Cell Line	relative viability ([1]; first compound 0.04 µM)	relative viability ([1]; first compound 0.1265 µM)	relative viability ([1]; first compound 0.4 µM)	relative viability ([1]; first compound 1.265 µM)	relative viability ([1]; first compound 4 µM)	relative viability ([2]; first compound 0.04 µM)	relative viability ([2]; first compound 0.1265 µM)	relative viability ([2]; first compound 0.4 µM)	relative viability ([2]; first compound 1.265 µM)	relative viability ([2]; first compound 4 µM)	relative viability ([3]; first compound 0.04 µM)	relative viability ([3]; first compound 0.1265 µM)	relative viability ([3]; first compound 0.4 µM)	relative viability ([3]; first compound 1.265 µM)	relative viability ([3]; first compound 4 µM)	relative viability ([4]; first compound 0.04 µM)	relative viability ([4]; first compound 0.1265 µM)	relative viability ([4]; first compound 0.4 µM)	relative viability ([4]; first compound 4 µM)	relative viability ([4]; first compound 1.265 µM)
NCI-H2126	1.09	0.966	0.907	0.889	0.854	0.8	0.715	0.51	0.765	0.642	0.913	0.877	0.856	0.927	0.901	0.646	0.571	0.392	0.405	–
NCI-H522	0.661	0.614	0.665	0.514	0.554	1.06	0.763	0.917	0.703	0.595	0.601	0.613	0.573	0.526	0.558	0.561	0.613	0.6	0.507	0.522
EMC-BAC-2	0.474	0.42	0.38	0.27	0.292	0.419	0.377	0.298	0.298	0.311	0.505	0.503	0.47	0.447	0.479	0.502	0.387	0.259	0.178	0.176
NCI-H1355	0.731	0.832	0.739	0.649	0.61	1.12	1.05	0.769	0.835	0.581	0.775	0.654	0.732	0.667	0.643	0.53	0.426	0.261	0.227	0.24
NCI-H2347	0.549	0.587	0.824	0.383	0.448	0.438	0.424	0.399	0.33	0.371	0.6	0.654	0.603	0.59	0.575	0.521	0.784	0.465	0.403	0.312
NCI-H1651	0.18	0.182	0.195	0.17	0.169	0.714	0.693	0.578	0.312	0.471	0.206	0.179	0.175	0.19	0.17	0.433	0.323	0.287	0.239	0.266
NCI-H1975	0.9	0.772	0.623	0.389	0.271	0.29	0.269	0.23	0.188	0.178	0.9	0.729	0.735	0.718	0.667	0.343	0.277	0.208	0.168	0.186
COR-L23	0.346	0.301	0.269	0.145	0.124	0.211	0.19	0.194	0.164	0.123	0.351	0.316	0.332	0.344	0.356	0.451	0.285	0.185	0.13	0.155
